The subject of one data set is Calu-1. Description: Antiproliferative activity against human Calu-1 cells assessed as inhibition of cell growth incubated for 48 hrs by MTT assay. The format is functional, cell-based. To be noted: Calu-1, 48 h. In general terms: Formazan colour is commonly taken as a measure of viable cells.
A further data set concerns SK-OV-3. The experiment in a line: Antiproliferative activity against human SK-OV-3 cells assessed as inhibition of cell growth incubated for 48 hrs by MTT assay. The format is functional, cell-based. To be noted: SK-OV-3, 48 h.
The test system of a further data set is HEK-293T. The experiment in a line: Antiproliferative activity against HEK293T cells assessed as inhibition of cell growth incubated for 48 hrs by MTT assay. To be noted: Homo sapiens. The format is functional, cell-based.
The nature of data set [1]: Selectivity index, ratio of IC50 for antiproliferative activity against HEK293T cells to IC50 for antiproliferative activity against human HepG2 cells. To be noted: HEK293T cells versus HepG2 cells, read-out: Ratio IC50. The data set is classed as toxicity, cell-based.
The test system of data set [2] is HepG2. The experiment in a line: Potency index, ratio of vincristine IC50 to test compound IC50 for antiproliferative activity against human HepG2 cells assessed as inhibition of cell growth incubated for 48 hrs by MTT assay. The format is functional.
In a further data set the test system is 786-0. Description: Antiproliferative activity against human 786-0 cells assessed as inhibition of cell growth incubated for 48 hrs by MTT assay. The format is functional, cell-based. To be noted: 786-0, 48 h.
The next data set has as its system SK-BR-3. Description: Antiproliferative activity against human SK-BR-3 cells assessed as inhibition of cell growth incubated for 48 hrs by MTT assay. The data set is classed as functional, cell-based. The settings on record: SK-BR-3, 48 h.
Data set [3] concerns HepG2. The experiment in a line: Antiproliferative activity against human HepG2 cells assessed as inhibition of cell growth incubated for 48 hrs by MTT assay. To be noted: HepG2, 48 h. The format is functional, cell-based.
Data set [4] deals with HepG2. The experiment in a line: Antiproliferative activity against human HepG2 cells assessed as inhibition of cell growth by MTT assay. The format is functional, cell-based.
Data set [5] can be described thus: Cytotoxicity against human L02 cells assessed as inhibition of cell growth incubated for 72 hrs by MTT assay. The format is toxicity, cell-based.
The next data set has as its system PC-12. The experiment in a line: Antiproliferative activity against PC-12 cells assessed as inhibition of cell growth incubated for 72 hrs by MTT assay. The data set is classed as functional, cell-based. The settings on record: Rattus norvegicus, PC-12, 72 h.
In a further data set the test system is U-118-MG. The experiment in a line: Antiproliferative activity against human U-118-MG cells assessed as inhibition of cell growth incubated for 72 hrs by MTT assay. The format is functional, cell-based.
Data set [6] concerns A549. Description: Antiproliferative activity against human A549 cells assessed as inhibition of cell growth incubated for 72 hrs by MTT assay. The data set is classed as functional, cell-based. To be noted: A549, 72 h.
Another data set has as its system SH-SY5Y. The experiment in a line: Antiproliferative activity against human SH-SY5Y cells assessed as inhibition of cell growth incubated for 72 hrs by MTT assay. The format is functional, cell-based.
The test system of another data set is U-87 MG. Description: Antiproliferative activity against human U-87 MG cells assessed as inhibition of cell growth incubated for 72 hrs by MTT assay. The data set is classed as functional, cell-based, U-87MG ATCC.
For the next data set, the system named is MCF7. Description: Antiproliferative activity against human MCF7 cells assessed as inhibition of cell growth incubated for 72 hrs by MTT assay. To be noted: MCF7, 72 h. The data set is classed as functional, cell-based.
Another data set deals with HCT-116. Description: Antiproliferative activity against human HCT-116 cells assessed as inhibition of cell growth incubated for 72 hrs by MTT assay. The format is functional, cell-based. The settings on record: HCT-116, 72 h.
In a further data set the test system is RPMI-7951. Description: Antiproliferative activity against human RPMI-7951 cells assessed as inhibition of cell growth incubated for 24 hrs by MTT assay. The data set is classed as functional, cell-based. To be noted: RPMI-7951, 24 h.
Data set [7] is described as follows: Cytotoxicity against human MCF-10A cells assessed as inhibition of cell growth incubated for 96 hrs by MTT assay. The format is toxicity, cell-based.
In data set [8] the test system is HT-29. Description: Antiproliferative activity against human HT-29 cells assessed as inhibition of cell growth incubated for 96 hrs by MTT assay. The data set is classed as functional, cell-based. To be noted: HT-29, 96 h.
Data set [9] relates to HT-29. Description: Antiproliferative activity against human HT-29 cells overexpressing carbonic anhydrase IX assessed as inhibition of cell growth incubated for 96 hrs under hypoxic condition by MTT assay. The data set is classed as functional, cell-based. To be noted: HT-29, 96 h.
The test system of data set [10] is MDA-MB-231. Description: Antiproliferative activity against human MDA-MB-231 cells assessed as inhibition of cell growth incubated for 96 hrs by MTT assay. The data set is classed as functional, cell-based. The settings on record: MDA-MB-231, 96 h.
Data set [11] relates to MDA-MB-231. The experiment in a line: Antiproliferative activity against human MDA-MB-231 cells assessed as inhibition of cell growth incubated for 72 hrs by MTT assay. The data set is classed as functional, cell-based. The settings on record: MDA-MB-231, 72 h.
A further data set concerns NCI-H460. The experiment in a line: Antiproliferative activity against human NCI-H460 cells assessed as inhibition of cell growth incubated for 72 hrs by MTT assay. The format is functional, cell-based. To be noted: NCI-H460, 72 h.
The subject of the next data set is HeLa. The experiment in a line: Antiproliferative activity against human HeLa cells assessed as inhibition of cell growth incubated for 72 hrs by MTT assay. The format is functional, cell-based.
Data set [12] relates to HT-29. Description: Antiproliferative activity against human HT-29 cells assessed as inhibition of cell growth incubated for 72 hrs by MTT assay. The format is functional, cell-based. The settings on record: HT-29, 72 h.
In data set [13] the test system is A549. The experiment in a line: Antiproliferative activity against human A549 cells assessed as inhibition of cell growth incubated for 96 hrs by MTT assay. To be noted: A549, 96 h. The data set is classed as functional, cell-based.
Data set [14] has as its system A549. The experiment in a line: Antitumor activity against human A549 cells xenografted in nude mouse assessed as tumor growth inhibition rate relative to control. The data set is classed as functional.
Data set [15] in a line: Antiproliferative activity against mouse Lewis lung carcinoma cell line assessed as inhibition of cell growth incubated for 48 hrs by MTT assay. The format is functional, cell-based.

As usually defined, the IC50 is the concentration at which inhibition is half-maximal.

For the compound `C[C@H]1[C@H](N2CCN(P(=O)(OCc3cncs3)N(CCCCl)CCCCl)CC2)O[C@@H]2O[C@@]3(C)CC[C@H]4[C@H](C)CC[C@@H]1[C@@]24OO3` (stereo partly specified), the IC50 with Calu-1, with SK-OV-3, in the data set on HEK-293T, with 786-0, in the data set with SK-BR-3 and in the data set with HepG2 [3] was 12.5 µM each time. The selectivity ratio in [1] was 16. Also, the “Ratio IC50” value in the data set on HepG2 [2] was found to be 7.4.

In the case of `CCCCCCCCCCCCOC(=O)C[C@H]1O[C@@H]2O[C@@]3(C)CC[C@H]4[C@H](C)CC[C@@H]([C@H]1C)[C@@]24OO3`, the IC50 in the data set on HepG2 [4] came out at 0.72 µM.

For the compound `C[C@@H]1CC[C@H]2[C@@H](C)C(N3CCN(C(=O)Oc4ccc(SC(F)(F)F)cc4)CC3)O[C@@H]3O[C@@]4(C)CC[C@@H]1[C@]32OO4` (stereo partly specified), the IC50 at 72 h in data set [5] was determined as 12.5 µM. In addition, the IC50 in the data set with PC-12, in the data set on U-118-MG, in the data set on A549 [6], with SH-SY5Y, with U-87 MG and with MCF7 was ≥ 0.12 µM each time. For the same compound, the IC50 with HCT-116 worked out at 0.12 µM.

Regarding `CCCCCCCCNC(=O)C[C@H]1O[C@@H]2O[C@@]3(C)CC[C@H]4[C@H](C)CC[C@@H]([C@H]1C)[C@@]24OO3`, the IC50 in the data set on HepG2 [4] was 9.5 µM.

Turning to `C[C@H]1[C@H](OC(=O)CCC(=O)NCCc2ccc(OC(=O)CCC(=O)O[C@@H]3O[C@@H]4O[C@@]5(C)CC[C@H]6[C@H](C)CC[C@@H]([C@H]3C)[C@@]46OO5)cc2)O[C@@H]2O[C@@]3(C)CC[C@H]4[C@H](C)CC[C@@H]1[C@@]24OO3`, the half-maximal inhibitory concentration (IC50) with RPMI-7951 is 2.45 µM.

`C[C@H]1[C@@H](OCCc2cn(-c3ccc(S(N)(=O)=O)cc3)nn2)O[C@@H]2O[C@@]3(C)CC[C@H]4[C@H](C)CC[C@@H]1[C@@]24OO3`: the IC50 at 96 h in data set [7] came out at 78 µM. Also, the results for the IC50 in the data set on HT-29 [8], with HT-29 [9] and in the data set on MDA-MB-231 [10] were 1.92 µM, 0.65 µM and 1.92 µM, respectively.

Consider `COc1ccc(OC)c(/C=C/C(=O)c2ccc(OCC(=O)N[C@@H]3O[C@@H]4O[C@@]5(C)CC[C@H]6[C@H](C)CC[C@@H]([C@H]3C)[C@@]46OO5)cc2)c1`, for which the IC50 with MDA-MB-231 [11], with NCI-H460, with HeLa and with HT-29 [12] was 0.19 µM throughout.

With `CCCCCCCCCCCCC(=O)C[C@H]1O[C@@H]2O[C@@]3(C)CC[C@H]4[C@H](C)CC[C@@H]([C@H]1C)[C@@]24OO3`, in the data set with HepG2 [4], the half-maximal inhibitory concentration (IC50) was 1.4 µM.

On to `COc1ccc(OC)c(/C=C/C(=O)c2ccc(OCC(=O)N[C@H]3O[C@@H]4O[C@@]5(C)CC[C@H]6[C@H](C)CC[C@@H]([C@H]3C)[C@@]46OO5)cc2)c1`, for which the IC50 with MDA-MB-231 [11], in the data set with NCI-H460, with HeLa and with HT-29 [12] was 0.12 µM throughout.

`C[C@@H]1CC[C@H]2[C@@H](C)C(=O)O[C@@H]3O[C@@]4(C)CC[C@@H]1[C@]32OO4` [ARTEMISININ]: the IC50 in the data set with HepG2 [4] stood at 97 µM.

As for `C[C@H]1[C@@H](O)O[C@@H]2O[C@@]3(C)CC[C@H]4[C@H](C)CC[C@@H]1[C@@]24OO3` [ARTENIMOL], the IC50 in the data set with A549 [13] came to 0.23 µM; in data set [15] it was 53.1 µM. In addition, the “inhibition (INH)” value with A549 [14] is on record as 54.3%.

These data come from ChEMBL document CHEMBL5352476, “A comprehensive overview of Artemisinin and its derivatives as anticancer agents” (Eur J Med Chem, 2023).
